2 compounds from ChEMBL document CHEMBL1146724, “Enzyme cleavable and biotinylated photoaffinity ligand with diazirine” (Bioorg Med Chem Lett, 2004) can be followed below.

The nature of the experiment: Km was determined.

Broadly, the Km is the substrate concentration at which the rate is half of its maximum. Turning to `N[C@@H](Cc1ccccc1)C(=O)Nc1ccc([N+](=O)[O-])cc1`, the Km is 750 µM. Then `CC(=O)CCCC[C@@H]1SCC2NC(=O)NC21` (some centres not stated), with 175 µM.
